Experimental findings from patent US11111245B2, “Derivatives of N-cycloalkyl/heterocycloalkyl-4-(imidazo[1,2-a]pyridine)pyrimidin-2-amine as therapeutic agents” (Aucentra Therapeutics Pty Ltd, priority 2017, dated 2021) are described below.

A value given as a limit tells only on which side of the number the result lay.

In one test the test system is leukemia cell lines. The test can be described thus: Resazurin cell viability assay on leukemia cell lines (72 h growth inhibition, GI50). The test is classed as cell-based. The note with it: Homo sapiens, MV4-11 cells. In a few lines: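 Cells were exposed to compound, then viability was read by MTT (solid tumour lines) or resazurin reduction (leukaemia lines). Non-linear regression gave the concentration inhibiting 50% of cell growth.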

A further test deals with CDK6/D3 (Homo sapiens, UniProt Q00534). The test can be described thus: ADP Glo Kinase assay CDK6/D3. The note with it: CDK6D3; for remaining activity at 10 µM: compound at 10 μM, read-out: residual activity (%) at 10 μM CDK6D3; for Ki: read-out: CDK inhibition, Ki (μM) CDK6D3. In kind it is biochemical. In a few lines:
(§1)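 ADP Glo luminescence, in-house: CDK4/D1, CDK6/D3 on RB-CTF substrate (Tris pH 7.5, MgCl2, DTT, BSA); CDK9/T1 on RBER-IRStide. Reaction 40 min, 37° C after ATP addition. 10-point 1:3 series, 10 μM to 0.5 nM. IC50 by 4-parameter logistic; Ki derived using ATP Km.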

The target of a further test is CDK9/T1 (Homo sapiens, UniProt P50750). As to the kind of experiment: ADP Glo Kinase assay CDK9/T1. In kind it is biochemical. The note with it: CDK9T1; read-out: CDK inhibition, Ki (μM) CDK9T1. In a few lines:
as §1

Test [1] concerns the target T1, CDKs and other kinases (Homo sapiens, UniProt P24941).
T1 construct: other: CDK2A; residual activity (%) at 10 μM CDK2A; compound at 10 μM
As to the kind of experiment: Radiometric kinase assay (Eurofins Pharma Discovery or Reaction Biology Corporation Kinase Profiler). In kind it is biochemical. The note with it: CDK2A; for remaining activity at 10 µM: compound at 10 μM, read-out: residual activity (%) at 10 μM CDK2A; for Ki: read-out: CDK inhibition, Ki (μM) CDK2A. The gist of the method:
(§2)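 Other CDKs and further kinases were profiled externally by radiometric assay. In-house ADP Glo assays covered CDK4/D1 and CDK6/D3 (RB-CTF substrate, pH 7.5 Tris buffer with MgCl2, DTT, BSA) and CDK9/T1 (RBER-IRStide substrate), 40 min at 37° C.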

Test [2] concerns the target T2, CDKs and other kinases (Homo sapiens, UniProt P50613).
T2 construct: other: CDK7H; residual activity (%) at 10 μM CDK7H; compound at 10 μM
The test is described as above. The test is classed as biochemical. The note with it: CDK7H; for remaining activity at 10 µM: compound at 10 μM, read-out: residual activity (%) at 10 μM CDK7H; for Ki: read-out: CDK inhibition, Ki (μM) CDK7H. In a few lines: as §2

Test [3] has as its target T3, CDKs and other kinases (Homo sapiens, UniProt P06493).
T3 construct: other: CDK1B; residual activity (%) at 10 μM CDK1B; compound at 10 μM
The test is described as above. In kind it is biochemical. The note with it: CDK1B; for remaining activity at 10 µM: compound at 10 μM, read-out: residual activity (%) at 10 μM CDK1B; for Ki: read-out: CDK inhibition, Ki (μM) CDK1B. In a few lines:
as §2

Another test deals with CDK4/D1 (Homo sapiens, UniProt P11802). The test can be described thus: ADP Glo Kinase assay CDK4/D1. In kind it is biochemical. The note with it: CDK4D1; for remaining activity at 10 µM: compound at 10 μM, read-out: residual activity (%) at 10 μM CDK4D1; for Ki: read-out: CDK inhibition, Ki (μM) CDK4D1. The gist of the method: as §1
Sequence of CDK4/D1 (P11802 whole entry): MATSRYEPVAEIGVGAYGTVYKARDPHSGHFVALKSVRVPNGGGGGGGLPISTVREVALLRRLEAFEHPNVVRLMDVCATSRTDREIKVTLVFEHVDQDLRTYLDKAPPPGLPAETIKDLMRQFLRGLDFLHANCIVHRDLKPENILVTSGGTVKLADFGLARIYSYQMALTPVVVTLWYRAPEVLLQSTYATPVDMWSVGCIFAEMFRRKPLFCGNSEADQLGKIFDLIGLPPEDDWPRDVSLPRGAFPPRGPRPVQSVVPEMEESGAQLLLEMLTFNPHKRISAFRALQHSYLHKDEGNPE
Sequence of CDK4/D1 (P24385 whole entry partner): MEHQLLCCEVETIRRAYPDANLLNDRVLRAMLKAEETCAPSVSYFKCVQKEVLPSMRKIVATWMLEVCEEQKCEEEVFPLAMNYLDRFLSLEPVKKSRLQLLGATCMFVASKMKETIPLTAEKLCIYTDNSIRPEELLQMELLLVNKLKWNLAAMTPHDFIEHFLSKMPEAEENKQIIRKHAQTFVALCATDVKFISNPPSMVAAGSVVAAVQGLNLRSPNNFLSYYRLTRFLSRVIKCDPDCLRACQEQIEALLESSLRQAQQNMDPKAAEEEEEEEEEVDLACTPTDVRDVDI

T2 sequence (P50613 whole entry): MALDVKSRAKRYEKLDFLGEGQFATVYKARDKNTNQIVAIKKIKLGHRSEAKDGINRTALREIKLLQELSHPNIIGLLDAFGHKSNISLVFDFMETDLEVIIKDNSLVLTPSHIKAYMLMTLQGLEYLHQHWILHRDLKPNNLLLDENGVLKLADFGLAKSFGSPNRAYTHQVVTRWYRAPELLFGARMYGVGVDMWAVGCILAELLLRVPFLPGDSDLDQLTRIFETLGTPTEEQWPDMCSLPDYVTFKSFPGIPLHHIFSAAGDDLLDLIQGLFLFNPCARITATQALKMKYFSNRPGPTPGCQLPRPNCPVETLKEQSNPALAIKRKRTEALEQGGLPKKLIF
Sequence of CDK9/T1 (P50750 whole entry): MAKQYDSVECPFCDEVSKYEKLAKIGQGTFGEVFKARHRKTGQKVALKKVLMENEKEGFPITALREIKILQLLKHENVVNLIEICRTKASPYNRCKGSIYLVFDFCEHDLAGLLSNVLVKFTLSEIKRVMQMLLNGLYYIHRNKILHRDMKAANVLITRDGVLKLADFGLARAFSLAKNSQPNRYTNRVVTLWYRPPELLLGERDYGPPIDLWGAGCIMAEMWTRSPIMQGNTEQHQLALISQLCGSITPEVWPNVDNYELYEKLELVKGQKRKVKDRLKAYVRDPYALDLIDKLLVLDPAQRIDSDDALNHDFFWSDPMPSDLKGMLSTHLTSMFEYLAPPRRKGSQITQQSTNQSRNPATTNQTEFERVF
Sequence of CDK9/T1 (O60563 whole entry partner): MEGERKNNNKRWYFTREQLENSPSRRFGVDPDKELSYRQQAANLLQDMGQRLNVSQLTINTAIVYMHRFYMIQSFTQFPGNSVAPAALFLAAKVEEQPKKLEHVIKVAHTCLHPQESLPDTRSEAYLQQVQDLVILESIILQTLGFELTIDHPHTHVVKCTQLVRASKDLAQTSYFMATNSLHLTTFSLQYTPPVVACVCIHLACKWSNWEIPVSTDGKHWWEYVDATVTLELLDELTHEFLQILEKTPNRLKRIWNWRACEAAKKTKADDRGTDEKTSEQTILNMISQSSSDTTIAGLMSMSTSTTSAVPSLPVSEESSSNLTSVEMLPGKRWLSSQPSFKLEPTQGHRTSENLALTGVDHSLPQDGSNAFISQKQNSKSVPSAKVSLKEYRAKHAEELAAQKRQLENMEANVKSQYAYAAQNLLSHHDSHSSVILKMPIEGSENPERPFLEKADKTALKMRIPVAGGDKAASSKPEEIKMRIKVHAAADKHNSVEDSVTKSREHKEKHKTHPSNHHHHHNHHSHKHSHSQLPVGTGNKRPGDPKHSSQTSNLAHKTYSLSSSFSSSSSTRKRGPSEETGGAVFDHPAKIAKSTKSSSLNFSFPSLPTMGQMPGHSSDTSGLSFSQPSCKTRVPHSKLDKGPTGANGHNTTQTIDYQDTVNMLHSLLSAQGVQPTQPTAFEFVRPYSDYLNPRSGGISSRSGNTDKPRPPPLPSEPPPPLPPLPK
Sequence of CDK6/D3 (Q00534 whole entry): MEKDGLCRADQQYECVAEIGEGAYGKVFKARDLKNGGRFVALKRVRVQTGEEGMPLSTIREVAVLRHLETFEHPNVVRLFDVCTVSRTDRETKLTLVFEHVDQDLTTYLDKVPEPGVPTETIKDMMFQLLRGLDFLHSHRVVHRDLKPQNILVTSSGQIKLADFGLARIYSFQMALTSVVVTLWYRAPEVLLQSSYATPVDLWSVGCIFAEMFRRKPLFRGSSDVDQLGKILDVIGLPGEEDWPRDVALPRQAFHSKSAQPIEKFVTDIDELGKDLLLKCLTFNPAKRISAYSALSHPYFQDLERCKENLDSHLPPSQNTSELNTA
Sequence of CDK6/D3 (P30281 whole entry partner): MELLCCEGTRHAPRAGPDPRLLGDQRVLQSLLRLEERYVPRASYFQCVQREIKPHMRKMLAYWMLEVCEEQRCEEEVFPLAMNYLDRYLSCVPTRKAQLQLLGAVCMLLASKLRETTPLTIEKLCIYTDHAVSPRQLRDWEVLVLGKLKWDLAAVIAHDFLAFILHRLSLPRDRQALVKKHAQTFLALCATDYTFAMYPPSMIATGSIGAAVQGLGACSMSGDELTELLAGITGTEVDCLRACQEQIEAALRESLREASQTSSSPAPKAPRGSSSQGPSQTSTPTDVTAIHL
T3 sequence (P06493 whole entry): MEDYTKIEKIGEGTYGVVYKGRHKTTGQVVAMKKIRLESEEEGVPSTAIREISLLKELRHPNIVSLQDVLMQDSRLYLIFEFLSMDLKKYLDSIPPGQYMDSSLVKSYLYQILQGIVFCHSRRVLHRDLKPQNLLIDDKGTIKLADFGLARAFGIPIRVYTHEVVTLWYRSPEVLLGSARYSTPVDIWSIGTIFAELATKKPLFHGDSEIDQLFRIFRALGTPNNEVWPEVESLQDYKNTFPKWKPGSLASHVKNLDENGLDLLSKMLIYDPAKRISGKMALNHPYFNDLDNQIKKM

Compound `Cc1cnc(N[C@H]2CC[C@@H](N)CC2)nc1-c1cnc2ccc(-c3ccccc3)cn12` [Compound 91, (1s,4s)-N^1-(5-Methyl-4-(6-phenylimidazo[1,2-a]pyridin-3-yl)pyrimidin-2-yl)cyclohexane-1,4-diamine] showed a concentration for 50% growth inhibition (GI50) in the test with leukemia cell lines of 0.014 ± 0.007 µM. In addition, the remaining activity at 10 µM is 41% on CDK6/D3; 7% at CDKs and other kinases [1]; 19% on CDKs and other kinases [2]; 5% at CDKs and other kinases [3]; 17% at CDK4/D1. Besides, on CDK9/T1, the Ki came out at 0.082 µM.

`Cc1cnc(N[C@]23C[C@@]4(C)C[C@](C)(C[C@](O)(C4)C2)C3)nc1-c1cnc2ccc(Nc3cncnc3)cn12` [Compound 102, (1s,3R,5S,7r)-3,5-Dimethyl-7-((5-methyl-4-(6-(pyrimidin-5-ylamino)imidazo[1,2-a]pyridin-3-yl)pyrimidin-2-yl)amino)adamantan-1-ol]: the GI50 in the test with leukemia cell lines came out at 0.059 ± 0.019 µM. The remaining activity at 10 µM at CDK6/D3 came to 100%; at CDKs and other kinases [1], 22%; at CDKs and other kinases [2] it was 85%; on CDKs and other kinases [3], 36%; at CDK4/D1, 73%. In addition, on CDK9/T1, the inhibition constant Ki turned out to be 0.109 µM.

As to `N[C@H]1CC[C@H](Nc2ncc(Cl)c(-c3cnc4ccc(-c5ccncc5)cn34)n2)CC1` [Compound 36, (1r,4r)-N^1-(5-Chloro-4-(6-(pyridin-4-yl)imidazo[1,2-a]pyridin-3-yl)pyrimidin-2-yl)cyclohexane-1,4-diamine], the concentration for 50% growth inhibition (GI50) in the test on leukemia cell lines worked out at 0.004 ± 0.001 µM. The remaining activity at 10 µM on CDK6/D3 stood at 48%; on CDK4/D1 it was 4%. For the same compound, the Ki was 0.016 µM on CDK9/T1; 0.016 µM at CDKs and other kinases [1]; 0.094 µM on CDKs and other kinases [2]; 0.065 µM on CDKs and other kinases [3].

Compound `Cc1cnc(N[C@H]2CC[C@H](N)CC2)nc1-c1cnc2ccc(Nc3cccnc3)cn12` [Compound 34, (1r,4r)-N^1-(5-Methyl-4-(6-(pyridin-3-ylamino)imidazo [1,2-a]pyridin-3-yl)pyrimidin-2-yl)cyclohexane-1,4-diamine] yielded a GI50 in the test on leukemia cell lines of 0.095 ± 0.031 µM. For the same compound, the Ki worked out at 1.05 µM on CDK6/D3; 0.005 µM on CDK9/T1; 0.09 µM at CDKs and other kinases [1]; 2.24 µM on CDKs and other kinases [2]; 2.16 µM at CDKs and other kinases [3]; 2.8 µM at CDK4/D1.

For the compound `Cc1cnc(N[C@H]2CC[C@H](N)CC2)nc1-c1cnc2ccc(-c3ccc(CN4CCOCC4)cc3)cn12` [Compound 60, (1r,4r)-N^1-(5-Methyl-4-(6-(4-(morpholinomethyl)phenyl)imidazo[1,2-a]pyridin-3-yl)pyrimidin-2-yl)cyclohexane-1,4-diamine], in the test with leukemia cell lines, the 50% growth inhibitory concentration (GI50) amounted to 0.057 ± 0.006 µM. Besides, the remaining activity at 10 µM on CDK6/D3 came out at 89%; on CDKs and other kinases [1], 62%; at CDKs and other kinases [2], 37%; on CDKs and other kinases [3] it was 57%. Besides, the Ki at CDK9/T1 was 0.41 µM. The residual activity at 10 µM on CDK4/D1 turned out to be 115%.

As to `Cc1cnc(NC2CCC(N(C)C)CC2)nc1-c1cnc2ccc(Nc3cccnc3)cn12` (stereo not drawn) [Compound 98, N^1,N^1-Dimethyl-N^4-(5-Methyl-4-(6-(pyridin-3-ylamino)imidazo[1,2-a]pyridin-3-yl)pyrimidin-2-yl)cyclohexane-1,4-diamine], in the test on leukemia cell lines, it took 0.153 ± 0.021 µM to inhibit growth by half (GI50). In addition, the inhibition constant Ki on CDK6/D3 stood at 0.53 µM; on CDK9/T1, 0.004 µM; on CDKs and other kinases [1], 0.31 µM; at CDKs and other kinases [2] it was 1.67 µM; at CDKs and other kinases [3], 1.5 µM; at CDK4/D1, 0.78 µM.

For `Cc1cnc(N[C@H]2CC[C@@H](N)CC2)nc1-c1cnc2ccc(Nc3cncnc3)cn12` [Compound 93, (1s,4s)-N^1-(5-Methyl-4-(6-(pyrimidin-5-ylamino)imidazo [1,2-a]pyridin-3-yl)pyrimidin-2-yl)cyclohexane-1,4-diamine], the GI50 with leukemia cell lines is 0.336 ± 0.082 µM. The remaining activity at 10 µM at CDK6/D3 came out at 69%; on CDKs and other kinases [1] it was 31%; at CDKs and other kinases [2], 49%; on CDKs and other kinases [3], 35%; on CDK4/D1, 28%. The Ki on CDK9/T1 turned out to be 0.071 µM.

Compound `Cc1cncc(Nc2ccc3ncc(-c4nc(N[C@H]5CC[C@H](N)CC5)ncc4C)n3c2)c1` [Compound 64, (1r,4r)-N^1-(5-Methyl-4-(6-((5-methylpyridin-3-yl)amino)imidazo[1,2-a]pyridin-3-yl)pyrimidin-2-yl)cyclohexane-1,4-diamine] had a GI50 with leukemia cell lines of 0.155 ± 0.054 µM. The remaining activity at 10 µM at CDK6/D3 is 38%; at CDK4/D1, 1%. The Ki on CDK9/T1 was determined as 0.016 µM; on CDKs and other kinases [1] it was 0.59 µM; on CDKs and other kinases [2], 1.44 µM; at CDKs and other kinases [3] it was 2.37 µM.

In turn, `Cc1cnc(N[C@H]2CC[C@H](N)CC2)nc1-c1cnc2ccc(-c3c(C)noc3C)cn12` [Compound 59, (1r,4r)-N^1-(4-(6-(3,5-Dimethylisoxazol-4-yl)imidazo [1,2-a]pyridin-3-yl)-5-methylpyrimidin-2-yl) cyclohexane-1,4-diamine] showed a GI50 in the test on leukemia cell lines of 0.274 ± 0.064 µM. In addition, the remaining activity at 10 µM on CDK6/D3 came out at 91%; on CDK4/D1, 55%. Moreover, the Ki worked out at 0.072 µM on CDK9/T1; 0.92 µM on CDKs and other kinases [1]; 2.39 µM at CDKs and other kinases [2]; 2.68 µM at CDKs and other kinases [3].

In the test on leukemia cell lines, `CC(=O)NC1CCC(Nc2ncc(C)c(-c3cnc4ccc(Nc5cncnc5)cn34)n2)CC1` (stereo not drawn) [Compound 113, N-(4-((5-Methyl-4-(6-(pyrimidin-5-ylamino)imidazo [1,2-a]pyridin-3-yl)pyrimidin-2-yl)amino)cyclohexyl) acetamide] had a 50% growth inhibitory concentration (GI50) above 10 µM. Further, the remaining activity at 10 µM on CDK6/D3 stood at 39%; at CDK4/D1, 28%. Further, the inhibition constant (Ki) at CDK9/T1 was 1.01 µM; on CDKs and other kinases [1], 0.45 µM; on CDKs and other kinases [2], 2.59 µM; on CDKs and other kinases [3], 0.82 µM.

`N[C@H]1CC[C@H](Nc2ncc(F)c(-c3cnc4cc(Cl)ccn34)n2)CC1` [Compound 43, (1r,4r)-N^1-(4-(7-Chloroimidazo[1,2-a]pyridin-3-yl)-5-fluoropyrimidin-2-yl)cyclohexane-1,4-diamine] had a 50% growth inhibitory concentration (GI50) in the test with leukemia cell lines of 0.004 ± 0.001 µM. Further, the remaining activity at 10 µM at CDK6/D3 is 2%; at CDKs and other kinases [1], 1%; at CDKs and other kinases [2], 3%; on CDKs and other kinases [3], 4%; at CDK4/D1 it was 0%. Moreover, on CDK9/T1, the inhibition constant Ki was determined as 0.008 µM.

`N[C@H]1CC[C@H](Nc2ncc(F)c(-c3cnc4ccc(Nc5cccc(F)c5)cn34)n2)CC1` [Compound 25, (1r,4r)-N^1-(5-Fluoro-4-(6-((3-fluorophenyl)amino)imidazo[1,2-a]pyridin-3-yl)pyrimidin-2-yl) cyclohexane-1,4-diamine]: in the test with leukemia cell lines, the 50% growth inhibitory concentration (GI50) was below 0.001 µM. Besides, the remaining activity at 10 µM at CDK6/D3 was found to be 4%; at CDKs and other kinases [1], 2%; at CDKs and other kinases [2] it was 1%; on CDKs and other kinases [3], 3%; on CDK4/D1, 4%. In addition, the Ki on CDK9/T1 stood at 0.003 µM.
